Marks after values point to notes of the source that are not given here.

One data set is described as follows: Measurement of logP values by HPLC on reversed phase columns (EEC directive 79/831 Annex V.A8). The format is physicochemical. To be noted: pH 2.3.
One may read the logP as the decadic logarithm of the partition coefficient of the neutral form, usually between octanol and water. A low value points to a more hydrophilic compound. For `CCN(C)C(=O)c1cccc(-c2ccnc(Nc3ccnc(Cl)c3)n2)n1` [Example A36], the logP was 2.25^[b].

Still in this data set, the particulars now being: pH 2.7.
Compound `CC(=NOCc1ccccc1)c1cc(-c2ncnc(Nc3cccc(Cl)c3)n2)ccn1` (mixture of isomers) [B50] had a logP of 5.18. Same read-out and setting: next, `CSc1cccc(Nc2ncnc(-c3ccnc(C(=O)NCCCN4CCCCCC4=O)c3)n2)c1` [B215]: 3.02; `CCON(C)C(=O)c1cc(-c2ncnc(Nc3ccsc3)n2)ccn1` [Example C33]: 2.26; `CCCCN(CC)C(=O)c1cc(-c2ncnc(Nc3ccc(OC)nc3)n2)ccn1` [Example C11]: 2.78. On the same count and under the same terms, next, `CC(C)=CCN(C)C(=O)c1cc(-c2ncnc(Nc3cccc(Cl)c3)n2)ccn1` [Example B148]: 3.67. The same measure, in the same setting: next, `CN(C)C(=O)c1cc(-c2ncnc(Nc3cccc(C(F)(F)F)c3)n2)ccn1` [Example B355]: 2.58; `CCCN(C)C(=O)c1cc(-c2ncnc(Nc3cccc(C(F)(F)F)c3)n2)ccn1` [Example B356]: 3.25.

For the compound `CC1CCCN1C(=O)c1cc(-c2ncnc(Nc3cccc(Cl)c3)n2)ccn1` (stereo not drawn) [Example B152], the logP stood at 3.23. As for `O=C(c1cc(-c2ncnc(Nc3cccc(Cl)c3)n2)ccn1)N1CC=CCC1` [Example B153], the logP was 3.11.

Regarding `CCN(C)C(=S)c1cc(-c2ncnc(Nc3cccc(COC)c3)n2)ccn1` [Example B248], the logP stood at 2.66. Consider `CN(CC1CCCO1)C(=O)c1cc(Nc2nccc(-c3ccnc(C(=O)N(C)CC4CCCO4)c3)n2)ccn1` (stereo not drawn) [Example A16], for which the logP is listed as 1.35. On the same count and under the same terms, next, `O=CN1CCN(C(=O)c2cc(-c3ncnc(Nc4cccc(Cl)c4)n3)ccn2)CC1` [Example B163]: 2.04; `CCN(CC)C(=O)c1cc(-c2ncnc(Nc3ccccc3)n2)ccn1` [Example B311]: 2.55; `CCON(CC)C(=O)c1cc(-c2ncnc(Nc3cccc(C(F)F)c3)n2)ccn1` [B414]: 2.88. The term chromatographic logP denotes a lipophilicity value derived from retention on a column. Higher therefore signals higher lipophilicity. In turn, `CCN(C)C(=O)c1cc(Nc2nccc(-c3ccnc(C(=O)N(C)CC)c3)n2)ccn1` [Example A19, N-ethyl-4-[2-({2-[ethyl(methyl)carbamoyl]pyridin-4-yl}amino)pyrimidin-4-yl]-N-methylpyridine-2-carboxamide] showed a chromatographic logP of 1.19.

Turning to `CC(C)CN(C)C(=O)c1cc(-c2ncnc(Nc3ccc(F)cc3)n2)ccn1` [Example B19], the logP is reported as 2.92. Same read-out and setting: as for `COc1cccc(Nc2ncnc(-c3ccnc(C(=O)N(C)C)c3)n2)c1` [Example B276], the figure is 2.01; as for `O=C(c1cc(-c2ncnc(Nc3cccc(Cl)c3)n2)ccn1)N1CCC(O)C1` (stereo not drawn) [B177], 2.07. `CCN(C)C(=O)c1cc(-c2ncnc(Nc3ccc(OC)nc3)n2)ccn1` [Example C10] registered a logP of 1.82. The same measure, in the same setting: as for `CN(C)C(=O)c1cc(-c2ncnc(Nc3ccsc3)n2)ccn1` [Example C19], the figure is 1.86. Consider `CC(CN(C)C)NC(=O)c1cc(-c2ncnc(Nc3cccc(Cl)c3)n2)ccn1` (stereo not drawn) [B66], for which the logP stood at 1.72. Still for that read-out and setting: next, `CCCCN(CCC)C(=O)c1cc(-c2ncnc(Nc3cccc(Cl)c3)n2)ccn1` [Example B126]: 4.31; `COCCN(C)C(=O)c1cc(-c2ncnc(Nc3cccc(C(F)(F)F)c3)n2)ccn1` [Example B361]: 2.75. Consider `CCN(CC)C(=O)c1cc(-c2ccnc(Nc3ccc(C(C)(C)C)s3)n2)ccn1` [Example A39, 4-{2-[(5-tert-butyl-2-thienyl)amino]pyrimidin-4-yl}-N,N-diethylpyridine-2-carboxamide], for which the chromatographic logP worked out at 3.62.

The compound `CCC(=NOCC(C)C)c1cc(-c2ncnc(Nc3cccc(Cl)c3)n2)ccn1` (mixture of isomers) [B65] registered a logP of 6.19.

For the compound `CCN(C)C(=O)c1cc(-c2ncnc(Nc3cccc(OC(F)F)c3)n2)ccn1` [B409], the log partition coefficient (logP) worked out at 2.57. Still for that read-out and setting: as for `CCN(CC)C(=S)c1cc(-c2ncnc(Nc3cccc(F)c3)n2)ccn1` [Example B11], the figure is 3.31. As to `CC(C)NC(=O)c1cc(-c2ncnc(Nc3cccc(Cl)c3)n2)ccn1` [Example B91], the logP was found to be 3.62. `O=C(NCCCO)c1cc(-c2ncnc(Nc3cccc(Cl)c3)n2)ccn1` [Example B183] returned a logP of 2.4. The same measure, in the same setting: next, `CCC(=NOC)c1cc(-c2ncnc(Nc3cccc(Cl)c3)n2)ccn1` (mixture of isomers) [Example B85]: 4.81. `CC(C)(C)NC(=O)c1cc(-c2ncnc(Nc3cccc(Cl)c3)n2)ccn1` [B98]: the logP is reported as 4.39. On the same count and under the same terms, next, `COCC(C1CC1)N(C)C(=O)c1cc(-c2ncnc(Nc3cccc(OC(F)F)c3)n2)ccn1` (stereo not drawn) [Example B303]: 2.94; `CN(CC(F)F)C(=O)c1cc(-c2ncnc(Nc3cccc(C(F)F)c3)n2)ccn1` [Example B371]: 2.75; `CCC(COC)NC(=O)c1cc(-c2ncnc(Nc3cccc(Cl)c3)n2)ccn1` (stereo not drawn) [B89]: 3.8. Same read-out and setting: as for `CC(C)CN(C)C(=O)c1cc(-c2ncnc(Nc3cccc(C(F)(F)F)c3)n2)ccn1` [Example B362], the figure is 3.58. The same measure, in the same setting: as for `COCC(C)NC(=O)c1cc(-c2ncnc(Nc3ccc(C)c(Cl)c3)n2)ccn1` (stereo not drawn) [Example B225], the figure is 3.8; as for `Clc1cccc(Nc2ncnc(-c3ccnc(C4=NOCCO4)c3)n2)c1` [Example B187], 2.63. The compound `COC(=O)c1cc(-c2ncnc(Nc3ccc(OC)c(F)c3)n2)ccn1` [B418] registered a log partition coefficient (logP) of 2.37.

For the compound `CCN(CC)C(=O)c1cc(-c2ncnc(Nc3cccc(C(F)(F)F)c3)n2)ccn1` [Example B346], the log partition coefficient (logP) was determined as 3.23. Same read-out and setting: next, `O=C(NCC(F)(F)F)c1cc(-c2ncnc(Nc3cccc(Cl)c3)n2)ccn1` [B117]: 3.67; `CCCCCN(C)C(=O)c1cc(-c2ncnc(Nc3cccc(Cl)c3)n2)ccn1` [Example B161]: 3.89.

The compound `CCC(=O)O/N=C(/N)c1cc(-c2ncnc(Nc3cccc(Cl)c3)n2)ccn1` [B108] registered a lipophilicity (logP) of 3.33. Same read-out and setting: as for `CCN(C)C(=O)c1cc(-c2ncnc(Nc3cccc(Cl)c3)n2)ccn1` [Example B157], the figure is 2.69.

Compound `CCC(=NOC(C1CC1)C1CC1)c1cc(-c2ncnc(Nc3cccc(Cl)c3)n2)ccn1` (mixture of isomers) [B79] came in with a logP of 6.59. On the same count and under the same terms, as for `CC(C)NC(=O)c1cc(-c2ncnc(Nc3ccc(F)c(Cl)c3)n2)ccn1` [B196], the figure is 3.73; as for `CC(C)CN(C)C(=O)c1cc(-c2ncnc(Nc3cc(F)ccc3F)n2)ccn1` [Example B238], 2.9. For the compound `CCNC(=O)c1cc(-c2ncnc(Nc3ccc(C)c(Cl)c3)n2)ccn1` [B231], the logP was determined as 3.55. On the same count and under the same terms, next, `O=C(c1cc(-c2ccnc(Nc3ccnc(Cl)c3)n2)ccn1)N1CCCC1` [Example A7]: 2.08; `COCCN(C)C(=O)c1cc(Nc2nccc(-c3ccnc(C(=O)N(C)CCOC)c3)n2)ccn1` [Example A4]: 1.1. Consider `CC(C)CN(C)C(=O)c1cc(-c2ncnc(Nc3cccc(F)c3)n2)ccn1` [Example B6], for which the lipophilicity (logP) is 2.92. Still for that read-out and setting: as for `COC(=O)c1cc(-c2ncnc(Nc3ccc(C)c(Cl)c3)n2)ccn1` [B419], the figure is 3.17.

The compound `CCN(C)C(=O)c1cc(-c2ncnc(Nc3ccsc3)n2)ccn1` [Example C17] yielded a logP of 2.13. The same measure, in the same setting: next, `CC(C)CN(C)C(=O)c1cc(-c2ncnc(Nc3ccccc3)n2)ccn1` [Example B315]: 2.84; `COCC(C)NC(=O)c1cc(-c2ncnc(Nc3ccc(F)c(Cl)c3)n2)ccn1` (stereo not drawn) [B191]: 3.48; `CN(CC1CC1)C(=O)c1cc(-c2ncnc(Nc3cccc(OC(F)F)c3)n2)ccn1` [B410]: 2.98. In the case of `C=CCON=C(C)c1cc(-c2ncnc(Nc3cccc(Cl)c3)n2)ccn1` (mixture of isomers) [Example B29], the logP came out at 4.7. Same read-out and setting: as for `C#CC(C)ON=C(CC)c1cc(-c2ncnc(Nc3cccc(Cl)c3)n2)ccn1` (mixture of isomers) [B42], the figure is 4.87; as for `CN(CCC#N)C(=O)c1cc(-c2ncnc(Nc3ccccc3)n2)ccn1` [Example B310], 2.07; as for `COCc1cccc(Nc2ncnc(-c3ccnc(C(=O)N(C)C(COC)C4CC4)c3)n2)c1` (stereo not drawn) [B251], 2.69. With `CSc1cccc(Nc2ncnc(-c3ccnc(C(=O)NC4CCC4)c3)n2)c1` [B220], the lipophilicity (logP) was determined as 3.73. As for `CON(C)C(=O)c1cc(-c2ncnc(Nc3ccsc3)n2)ccn1` [Example C30, N-methoxy-N-methyl-4-[4-(3-thienylamino)-1,3,5-triazin-2-yl]pyridine-2-carboxamide], the chromatographic logP came to 2.05. On to `C=CCNC(=O)c1cc(-c2ncnc(Nc3cccc(F)c3)n2)ccn1` [B325], for which the log partition coefficient (logP) is recorded as 3.08.

Take `O=C(c1cc(-c2ccnc(Nc3ccnc(Cl)c3)n2)ccn1)N1CCOCC1` [Example A22]: the logP came out at 1.69.

`O=C(NC1CCS(=O)(=O)C1)c1cc(-c2ncnc(Nc3cccc(Cl)c3)n2)ccn1` (stereo not drawn) [B101]: the logP was determined as 2.66. On the same count and under the same terms, as for `CC(=O)Nc1cccc(Nc2ncnc(-c3ccnc(C(=O)N(C)CC(C)C)c3)n2)c1` [Example B308], the figure is 2.1; as for `CN(C)C(=O)c1cc(-c2ncnc(Nc3cccc(C#N)c3)n2)ccn1` [Example B294], 1.88.

Turning to `CCN(C)C(=S)c1cc(-c2ncnc(Nc3cccc(C(C)C)c3)n2)ccn1` [Example B259], the log partition coefficient (logP) came to 3.7. The same measure, in the same setting: next, `CC(=O)N(c1ccsc1)c1ncnc(-c2ccnc(C(=O)N(C)CCC#N)c2)n1` [Example C29]: 1.78; `COCc1cccc(Nc2ncnc(-c3ccnc(C(=O)N(C)CC(C)C)c3)n2)c1` [Example B244]: 2.66. `CCN(CC)C(=O)c1cc(-c2nc(Nc3ccsc3)ncc2C)ccn1` [Example A41, N,N-diethyl-4-[5-methyl-2-(3-thienylamino)pyrimidin-4-yl]pyridine-2-carboxamide] returned a chromatographic logP of 2.61.

The data set is the same for the next values; noted with them: pH 7.8.
Turning to `COc1ccc(Nc2ncnc(-c3ccnc(C(=O)N4CCCC4)c3)n2)cn1` [Example C1], the lipophilicity (logP) was 1.99^[c].

For the origin of these results see patent US20110218188A1, “SUBSTITUTED (PYRIDYL)-AZINYLAMINE DERIVATIVES AS FUNGICIDES” (priority 2008, published 2011).
